Test results taken from US4681755A, “Delivery device for zero-order release of an active principle into a dissolution fluid and process for its preparation” (Sigma-Tau Industrie Farmaceutiche Riunite S.p.A., priority 1984, dated 1987).
Like-named read-outs stand apart in the source and are kept apart here.

Assays:
[1] = In vitro release, USP XXI "paddle" apparatus, distilled water at 37° C.; assay type: physicochemical; details: Ex. 2, coated reservoir, no drug in protective membrane
[2] = as above; assay type: physicochemical
Protocol: "In vitro" experiments were carried out both on (i) the uncoated solid matrix-type reservoirs, and (ii) the finished devices; i.e., on the reservoirs coated both with the release rate-controlling membrane and with the protective membrane loaded with a portion of the active principle which is desired to be immediately available.
To carry out such experiments, a USP XXI "paddle" apparatus was used with distilled water at 37° C. as the dissolution medium.

[3] = In vitro model, diltiazem release (Example 7; apparatus not restated); assay type: physicochemical
[4] = Ex. 1 device, healthy volunteer
Protocol: A healthy volunteer was administered the same device. The following plasma levels of active principle were detected.

[5] = Ex. 1, coated reservoir, drug-loaded protective membrane, 1 h
[6] = Ex. 1, coated reservoir, drug-loaded protective membrane, 2 h
[7] = Ex. 1, coated reservoir, drug-loaded protective membrane, 3 h
[8] = Ex. 1, coated reservoir, drug-loaded protective membrane, 4 h
[9] = Ex. 1, coated reservoir, drug-loaded protective membrane, 5 h
[10] = Ex. 1, coated reservoir, drug-loaded protective membrane, 6 h
[11] = Ex. 1, uncoated solid matrix-type reservoir (100 mg), 30 min
[12] = Ex. 1, uncoated solid matrix-type reservoir (100 mg), 60 min
[13] = Ex. 1, uncoated solid matrix-type reservoir (100 mg), 90 min
[14] = Ex. 1, uncoated solid matrix-type reservoir (100 mg), 120 min

Compound: methisoprinol
- Total drug released ([1]; 1 h): 53 mg
- Total drug released ([1]; 5 h): 273 mg
- Total drug released ([2]; Ex. 2, coated reservoir, no drug in protective membrane, 2 h): 115 mg
- Total drug released ([2]; Ex. 2, coated reservoir, no drug in protective membrane, 3 h): 173 mg
- Total drug released ([2]; Ex. 2, coated reservoir, no drug in protective membrane, 4 h): 223 mg
- Total drug released ([2]; Ex. 2, coated reservoir, no drug in protective membrane, 6 h): 315 mg
- Total drug released ([2]; Ex. 2, coated reservoir, no drug in protective membrane, 7 h): 357 mg
- Total drug released ([2]; Ex. 2, uncoated solid matrix-type reservoir (500 mg), 30 min): 225 mg
- Total drug released ([2]; Ex. 2, uncoated solid matrix-type reservoir (500 mg), 60 min): 312 mg
- Total drug released ([2]; Ex. 2, uncoated solid matrix-type reservoir (500 mg), 90 min): 365 mg
- Total drug released ([2]; Ex. 2, uncoated solid matrix-type reservoir (500 mg), 120 min): 405 mg

Compound: CCC(COC(=O)c1cc(OC)c(OC)c(OC)c1)(c1ccccc1)N(C)C (stereo not shown) [Trimebutine, trimebutine]
- Total drug released ([2]; Ex. 5, coated reservoir, drug-loaded protective membrane, 1 h): 18 mg
- Total drug released ([2]; Ex. 5, coated reservoir, drug-loaded protective membrane, 2 h): 30 mg
- Total drug released ([2]; Ex. 5, coated reservoir, drug-loaded protective membrane, 3 h): 50 mg
- Total drug released ([2]; Ex. 5, coated reservoir, drug-loaded protective membrane, 4 h): 67 mg
- Total drug released ([2]; Ex. 5, coated reservoir, drug-loaded protective membrane, 5 h): 90 mg
- Total drug released ([2]; Ex. 5, coated reservoir, drug-loaded protective membrane, 6 h): 103 mg
- Total drug released ([2]; Ex. 5, uncoated solid matrix-type reservoir (140 mg), 30 min): 20 mg
- Total drug released ([2]; Ex. 5, uncoated solid matrix-type reservoir (140 mg), 60 min): 64 mg
- Total drug released ([2]; Ex. 5, uncoated solid matrix-type reservoir (140 mg), 90 min): 80 mg
- Total drug released ([2]; Ex. 5, uncoated solid matrix-type reservoir (140 mg), 120 min): 105 mg
- Total drug released ([2]; Ex. 6, coated reservoir, protective membrane loaded with 15 mg drug, 0.5 h): 22.5 mg
- Total drug released ([2]; Ex. 6, coated reservoir, protective membrane loaded with 15 mg drug, 1 h): 45.0 mg
- Total drug released ([2]; Ex. 6, coated reservoir, protective membrane loaded with 15 mg drug, 2 h): 82.5 mg
- Total drug released ([2]; Ex. 6, coated reservoir, protective membrane loaded with 15 mg drug, 3 h): 105.0 mg
- Total drug released ([2]; Ex. 6, coated reservoir, protective membrane loaded with 15 mg drug, 4 h): 120.0 mg
- Total drug released ([2]; Ex. 6, coated reservoir, protective membrane loaded with 15 mg drug, 5 h): 127.5 mg
- Total drug released ([2]; Ex. 6, uncoated solid matrix-type reservoir (135 mg), 20 min): 47 mg
- Total drug released ([2]; Ex. 6, uncoated solid matrix-type reservoir (135 mg), 40 min): 64.8 mg
- Total drug released ([2]; Ex. 6, uncoated solid matrix-type reservoir (135 mg), 60 min): 77.0 mg
- Total drug released ([2]; Ex. 6, uncoated solid matrix-type reservoir (135 mg), 80 min): 87.8 mg
- Total drug released ([2]; Ex. 6, uncoated solid matrix-type reservoir (135 mg), 100 min): 94.5 mg
- Total drug released ([2]; Ex. 6, uncoated solid matrix-type reservoir (135 mg), 180 min): 115 mg

Compound: COc1ccc([C@@H]2Sc3ccccc3N(CCN(C)C)C(=O)[C@@H]2OC(C)=O)cc1.Cl [Diltiazem, diltiazem HCl]
- Total drug released ([3]; Ex. 7, coated reservoir, no drug in protective membrane, 0.5 h): 14.4 mg
- Total drug released ([3]; Ex. 7, coated reservoir, no drug in protective membrane, 1 h): 29.5 mg
- Total drug released ([3]; Ex. 7, coated reservoir, no drug in protective membrane, 2 h): 67.6 mg
- Total drug released ([3]; Ex. 7, coated reservoir, no drug in protective membrane, 3 h): 89.9 mg
- Total drug released ([3]; Ex. 7, coated reservoir, no drug in protective membrane, 4 h): 102.3 mg
- Total drug released ([3]; Ex. 7, uncoated solid matrix-type reservoir (120 mg), 15 min): 40.0 mg
- Total drug released ([3]; Ex. 7, uncoated solid matrix-type reservoir (120 mg), 30 min): 57.6 mg
- Total drug released ([3]; Ex. 7, uncoated solid matrix-type reservoir (120 mg), 45 min): 69.6 mg
- Total drug released ([3]; Ex. 7, uncoated solid matrix-type reservoir (120 mg), 60 min): 80.4 mg
- Total drug released ([3]; Ex. 7, uncoated solid matrix-type reservoir (120 mg), 75 min): 85.2 mg

Compound: COc1ccc2c(C(=O)c3ccc(Cl)cc3)c(C)n(CC(=O)O)c2c1.NCCCCC(N)C(=O)O [Clometacin lysinate, clometacin lysinate]
- Total drug released ([2]; Ex. 4, coated reservoir, drug-loaded protective membrane, 1 h): 15 mg
- Total drug released ([2]; Ex. 4, coated reservoir, drug-loaded protective membrane, 2 h): 40 mg
- Total drug released ([2]; Ex. 4, coated reservoir, drug-loaded protective membrane, 3 h): 61 mg
- Total drug released ([2]; Ex. 4, coated reservoir, drug-loaded protective membrane, 4 h): 78 mg
- Total drug released ([2]; Ex. 4, coated reservoir, drug-loaded protective membrane, 5 h): 95 mg
- Total drug released ([2]; Ex. 4, coated reservoir, drug-loaded protective membrane, 6 h): 116 mg
- Total drug released ([2]; Ex. 4, uncoated solid matrix-type reservoir (150 mg), 30 min): 63 mg
- Total drug released ([2]; Ex. 4, uncoated solid matrix-type reservoir (150 mg), 60 min): 91 mg
- Total drug released ([2]; Ex. 4, uncoated solid matrix-type reservoir (150 mg), 90 min): 105 mg
- Total drug released ([2]; Ex. 4, uncoated solid matrix-type reservoir (150 mg), 120 min): 124 mg

Compound: CC(=O)O[C@H](CC(=O)[O-])C[N+](C)(C)C [Acetyl L-carnitine, acetyl L-carnitine]
- Total drug released ([2]; Ex. 3, coated reservoir, no drug in protective membrane, 1 h): 60 mg
- Total drug released ([2]; Ex. 3, coated reservoir, no drug in protective membrane, 2 h): 135 mg
- Total drug released ([2]; Ex. 3, coated reservoir, no drug in protective membrane, 3 h): 210 mg
- Total drug released ([2]; Ex. 3, coated reservoir, no drug in protective membrane, 4 h): 280 mg
- Total drug released ([2]; Ex. 3, coated reservoir, no drug in protective membrane, 5 h): 348 mg
- Total drug released ([2]; Ex. 3, coated reservoir, no drug in protective membrane, 6 h): 411 mg
- Total drug released ([2]; Ex. 3, uncoated solid matrix-type reservoir (500 mg), 30 min): 158 mg
- Total drug released ([2]; Ex. 3, uncoated solid matrix-type reservoir (500 mg), 60 min): 242 mg
- Total drug released ([2]; Ex. 3, uncoated solid matrix-type reservoir (500 mg), 90 min): 335 mg
- Total drug released ([2]; Ex. 3, uncoated solid matrix-type reservoir (500 mg), 120 min): 395 mg

Compound: COc1ccc2c(c1)c(CC(=O)O)c(C)n2C(=O)c1ccc(Cl)cc1.NCCCC[C@H](N)C(=O)O [Indomethacin lysinate, Lysine salt of indomethacin]
- Plasma level of active principle ([4]; 1 h): 1600 ng/mL
- Plasma level of active principle ([4]; 2 h): 2500 ng/mL
- Plasma level of active principle ([4]; 5 h): 3200 ng/mL
- Plasma level of active principle ([4]; 8 h): 1500 ng/mL
- Plasma level of active principle ([4]; 12 h): 1100 ng/mL
- Plasma level of active principle ([4]; 24 h): 800 ng/mL
- Release rate in vitro ([2]; Ex. 1, after release rate-controlling membrane is applied): substantially constant through the sixth hour
- Rate [2, 5]: 14 mg/h
- Total drug released [2, 5]: 14 mg
- Rate [2, 6]: 12.5 mg/h
- Total drug released [2, 6]: 25 mg
- Rate [2, 7]: 13.3 mg/h
- Total drug released [2, 7]: 40 mg
- Rate [2, 8]: 14.25 mg/h
- Total drug released [2, 8]: 57 mg
- Rate [2, 9]: 15.4 mg/h
- Total drug released [2, 9]: 77 mg
- Rate [2, 10]: 15.5 mg/h
- Total drug released [2, 10]: 93 mg
- Time in which drug is wholly released ([2]; Ex. 1, uncoated solid matrix-type reservoir): about 5 hours
- Rate [2, 11]: 40 mg/h
- Total drug released [2, 11]: 20 mg
- Rate [2, 12]: 54 mg/h
- Total drug released [2, 12]: 54 mg
- Rate [2, 13]: 43 mg/h
- Total drug released [2, 13]: 65 mg
- Rate [2, 14]: 37.5 mg/h
- Total drug released [2, 14]: 75 mg
